Laboratory results as given in ChEMBL document CHEMBL1134222, “The identification of a potent, water soluble inhibitor of lipoprotein-associated phospholipase A2” (Bioorg Med Chem Lett, 2001).
pIC50: −log10 of the molar value.

What was measured:
[1] = Concentration required for inhibition of human serine dependent Phospholipase A2
[2] = organism: Rattus norvegicus; assay: Compound was tested for its percent CNS penetration in rat; type: functional, Central nervous system
[3] = organism: Homo sapiens; assay: Compound was tested for inhibition of plasma enzyme in whole human plasma at concentration 100 nM; type: functional
[4] = system: Rattus norvegicus; assay: Compound was tested for liver blood flow after intravenous administration in rat; type: functional
[5] = Rapid clearance after intravenous administration in rat was determined; type: ADME, organism-based; details: blood, read-out: CLb
[6] = system: Platelet-activating factor acetylhydrolase (Rattus norvegicus); assay: Compound was tested for inhibition of Lipoprotein associated phospholipase A2 in rat; details: concentration not given here

| SMILES | pIC50 [1] | other results |
| --- | --- | --- |
| CCCCCCCCN(C)C(=O)Cn1cc(Cc2cnc(OCC)nc2)c(=O)nc1SCc1ccc(F)cc1 | 8.52 | – |
| CCCCCCCCN(C)C(=O)Cn1cc(Cc2cnc(=O)n(C)c2)c(=O)nc1SCc1ccc(F)cc1 | 7.57 | – |
| CCCCCCCCN(C)C(=O)Cn1cc(Cc2cnc(=O)n(CC)c2)c(=O)nc1SCc1ccc(F)cc1 | 7.70 | – |
| CCCCCCCCN(C)C(=O)Cn1cc(Cc2cnc(=O)n(CC(=O)O)c2)c(=O)nc1SCc1ccc(F)cc1 | 7.85 | Activity [2]: 10% |
| CCCCCCCCN(C)C(=O)Cn1cc(Cc2cncnc2)c(=O)nc1SCc1ccc(F)cc1 | 7.82 | – |
| CCCCCCCCCCCCN(C)C(=O)Cn1cc(Cc2cnc(=O)n(CC(=O)N3CCOCC3)c2)c(=O)nc1SCc1ccc(F)cc1 | 9.15 | Activity [2]: <7%; inhibition at 0.1 µM [3]: 80% |
| CCCCCCCCCCCCN(C)C(=O)Cn1cc(Cc2cnc(OC)nc2)c(=O)nc1SCc1ccc(F)cc1 | 9.00 | – |
| CCCCCCCCN(C)C(=O)Cn1cc(Cc2cnc(=O)n(CC(=O)N3CCOCC3)c2)c(=O)nc1SCc1ccc(F)cc1 | 8.00 | – |
| CCCCCCCCCCCCN(C)C(=O)Cn1cc(Cc2cnc(=O)n(CC(=O)NCCO)c2)c(=O)nc1SCc1ccc(F)cc1 | 9.22 | inhibition at 0.1 µM [3]: 79% |
| CCCCCCCCN(C)C(=O)Cn1cc(Cc2cnc(OC)nc2)c(=O)nc1SCc1ccc(F)cc1 | 8.40 | – |
| CCCCCCCCN(C)C(=O)Cn1cc(Cc2cnc(O)nc2)c(=O)nc1SCc1ccc(F)cc1 | 8.40 | Activity [2]: 7% |
| CCCCCCCCCCCCN(C)C(=O)Cn1cc(Cc2cncnc2)c(=O)nc1SCc1ccc(F)cc1 | – | Activity [2]: <2% |
| CCCCCCCCNC(=O)Cn1cc(Cc2cncnc2)c(=O)nc1SCc1ccc(F)cc1 | 8.15 | – |
| CCCCCCCCCCCCN(C)C(=O)Cn1cc(Cc2cnc(=O)n(CC(=O)N3CCNC(=O)C3)c2)c(=O)nc1SCc1ccc(F)cc1 | 9.40 | – |
| CCCCCCCCCCCCN(C)C(=O)Cn1cc(Cc2cnc(=O)n(CC(=O)OCC)c2)c(=O)nc1SCc1ccc(F)cc1 | 8.40 | – |
| CCCCCCCCCCCCN(C)C(=O)Cn1cc(Cc2cnc(O)nc2)c(=O)nc1SCc1ccc(F)cc1 | 9.05 | – |
| CCCCCCCCN(C)C(=O)Cn1cc(Cc2cnc(=O)n(CC(=O)N3CCNC(=O)C3)c2)c(=O)nc1SCc1ccc(F)cc1 | 8.70 | – |
| CCCCCCCCN(C)C(=O)Cn1cc(Cc2cnc(=O)n(CC(=O)OCC)c2)c(=O)nc1SCc1ccc(F)cc1 | 7.12 | – |
| CCCCCCCCCCCCN(C)C(=O)Cn1cc(Cc2cnc(=O)n(C)c2)c(=O)nc1SCc1ccc(F)cc1 | 8.30 | – |
| CCCCCCCCN(C)C(=O)Cn1cc(Cc2cnc(=O)n(CC(=O)N3CCN(C(C)=O)CC3)c2)c(=O)nc1SCc1ccc(F)cc1 | 8.30 | – |
| CCCCCCCCCCCCN(C)C(=O)Cn1cc(Cc2cnc(=O)n(CC(=O)NC)c2)c(=O)nc1SCc1ccc(F)cc1 | 9.40 | inhibition at 0.1 µM [3]: 80% |
| CCCCCCCCCCCCN(C)C(=O)Cn1cc(Cc2cnc(=O)n(CC(=O)O)c2)c(=O)nc1SCc1ccc(F)cc1 | 9.00 | Activity [2]: 37%; Activity [4]: 85%; clearance [5]: 76 mL/min/kg; inhibition [6]: 83% |
| CCCCCCCCN(C)C(=O)Cn1cc(Cc2cnc(=O)n(CC(=O)NCCO)c2)c(=O)nc1SCc1ccc(F)cc1 | 8.10 | – |
| CCCCCCCCN(C)C(=O)Cn1cc(Cc2cnc(=O)n(CC(=O)NC)c2)c(=O)nc1SCc1ccc(F)cc1 | 8.22 | Activity [2]: <7% |
| CCCCCCCCN(C)C(=O)Cn1cc(Cc2cnc(=O)n(CC(=O)N3CCN(C)CC3)c2)c(=O)nc1SCc1ccc(F)cc1 | 8.52 | – |
| CCCCCCCCCCCCN(C)C(=O)Cn1cc(Cc2cnc(=O)n(CCO)c2)c(=O)nc1SCc1ccc(F)cc1 | 9.00 | – |
| CCCCCCCCN(C)C(=O)Cn1cc(Cc2cnc(OCc3ccccc3)nc2)c(=O)nc1SCc1ccc(F)cc1 | 8.15 | – |
| CCCCCCCCN(C)C(=O)Cn1cc(Cc2cnc(=O)n(CCO)c2)c(=O)nc1SCc1ccc(F)cc1 | 8.30 | – |
| CCCCCCCCN(C)C(=O)Cn1cc(Cc2cnc(=O)n(CC(=O)NCCC)c2)c(=O)nc1SCc1ccc(F)cc1 | 7.96 | – |
